Assays:
[1] = tested on: IL-17 production by CD4 T cells; test: Human Th17 Assay (IL-17 production by CD4 T cells); format: cell-based; conditions: IL-17 in supernatant after 3 days, Th17 differentiation conditions
Text: The human Thl7 assay tests the effect of RORyt modulatory compounds on IL-17 production by CD4 T cells under conditions which favor Th17 differentiation.
Total CD4^+ T cells were isolated from the peripheral blood mononuclear cells (PBMC) of healthy donors using a CD4^+ T cell isolation kit II, following the manufacturer's instructions (Miltenyi Biotec). Cells were resuspended in a medium of RPMI-1640 supplemented with 10% fetal bovine serum, penicillin, streptomycin, […], and β-mercaptoethanol and were added to 96-well plates at 1.5x10^5 per 100 µL per well. 50 µL of compound at titrated concentrations in DMSO were added into each well at final DMSO concentration at 0.2%. Cells were incubated for 1 hour, then 50 µL of Th17 cell differentiation medium was added to each well. The final concentrations of antibodies and cytokines (R&D Systems) in differentiation medium were: 3x10^6/mL anti-CD3/CD28 beads (prepared using human T cell activation/expansion kit, Miltenyi Biotec), 10 µg/mL anti-IL4, 10 µg/mL anti-IFNγ, 10 ng/mL IL1β, 10 ng/mL IL23, 50 ng/mL IL6, 3 ng/mL TGFβ and 20 U/mL IL2. Cells were cultured at 37 °C and 5% CO2 for 3 days. Supernatants were collected and the accumulated IL-17 in culture was measured by using MULTI-SPOT® Cytokine Plate following manufacture's instruction (Meso Scale Discovery). The plate was read using Sector Imager 6000, and IL-17 concentration was extrapolated from the standard curve. The IC50s were determined by GraphPad.

full-length human RORγt = target: T1, full-length human RORγt (Homo sapiens, UniProt P51449); test: RORγt (full-length human) Reporter Assay (GAL4 luciferase, HEK293T cells); format: cell-based; conditions: for IC50: overnight (16 to 20 hours) incubation, read-out: RORγt (FL) Reporter Assay, IC50
T1 construct: expressed in transfected cells; host or cells: HEK293T
T1 sequence (P51449 1-497 isoform P51449-2): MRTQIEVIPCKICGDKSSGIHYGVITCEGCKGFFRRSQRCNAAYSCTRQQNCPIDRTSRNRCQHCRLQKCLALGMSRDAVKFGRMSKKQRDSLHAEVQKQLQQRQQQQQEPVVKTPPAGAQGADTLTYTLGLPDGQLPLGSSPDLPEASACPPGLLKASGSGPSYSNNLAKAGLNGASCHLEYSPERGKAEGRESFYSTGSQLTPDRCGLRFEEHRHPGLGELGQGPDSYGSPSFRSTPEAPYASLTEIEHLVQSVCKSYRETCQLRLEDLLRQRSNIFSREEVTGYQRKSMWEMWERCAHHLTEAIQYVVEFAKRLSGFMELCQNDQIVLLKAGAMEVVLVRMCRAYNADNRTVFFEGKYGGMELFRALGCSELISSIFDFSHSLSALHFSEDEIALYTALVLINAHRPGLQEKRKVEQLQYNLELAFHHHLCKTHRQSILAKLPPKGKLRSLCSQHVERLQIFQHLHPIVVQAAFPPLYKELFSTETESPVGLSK
Method: Compounds were assessed for RORgt functional modulation using either the RORgt ligand binding domain (LBD) reporter assay, or the RORgt full-length (FL) reporter assay.
A reporter assay was used to test functional activity of RORγt modulatory compounds on transcriptional activation driven by full-length human RORγt. Cells used in this assay were transiently co-transfected with three different plasmids, one expressing the GAL4-DNA binding domain (DBD)-RORγt fusion protein under control of a CMV promoter (NH2-Gal4-DBD:RORC-COOH in pCMV-BD, Stratagene #211342), and two reporter plasmids - the firefly luciferase reporter under control of a GAL4 promoter (pFR-Luc 2x GAL4) and Renilla luciferase reporter under control of CMV promoter (pRL-CMV, Promega #E2261). The full-length coding sequence was used for human RORγt, i.e., nucleotides 142-1635 of human RORγt, transcript variant 2, NCBI Accession: NM_001001523.1 (SEQ ID NO:1). HEK293T cells were plated at 35000 per well in 96-well plate in medium of MEM with 8.6% FBS. After 18-22 hours incubation, the transfection was carried out by using a PEI solution with 170.5 ng total DNA/well (50 ng pCMV-BD-ROR plus 20 ng of pFR-Luc reporter and 0.5 ng of pRL-CMV reporter plus 100 ng Carrier DNA (Clontech # 630440) for each well). 4-6 hours after transfection, cells were treated with compounds for overnight in the medium with final concentration of FBS 1.1% and DMSO 0.1%. After overnight (16 to 20 hours) incubation, media were removed and cells were lysed with 20 µL 1x Passive Lysis Buffer (Promega) for 10-15 minutes. Luminescence was measured using a BMG LUMIstar OPTIMA plate reader, after addition of 75 µL/well firefly luciferase buffer, followed by 75 µL/well Renilla luciferase buffer. To calculate the effect of compounds on RORγt activity, firefly values were normalized against values of DMSO only and values of reference compound at saturating concentration, then further normalized against Renilla signals. IC50s were generated by plotting final Renilla normalized data against compound concentration and percent inhibition was calculated against DMSO control.

IC50 ([1]; Homo sapiens, CD4+ T, 72 h)	inhibition at 0.67 µM (full-length human RORγt; HEK-293T, 0.67 µM compound concentration (footnote *), read-out: RORγt (FL) Reporter Assay, % inhibition (values marked *))	IC50 (full-length human RORγt)	IC50 [1]	inhibition at 2 µM (full-length human RORγt; HEK-293T, 2 µM compound, read-out: RORγt (FL) Reporter Assay, % inhibition @ 2 µM)	SMILES
120 nM	85%	91 nM			COc1nc2ccc(C(O)c3cnc(C)n3C)cc2c(Cl)c1Cc1ccc(C(F)(F)F)cc1 (single isomer, unassigned) [Example 15b, (4-Chloro-2-methoxy-3-(4-(trifluoromethyl)benzyl)quinolin-6-yl)(1,2-dimethyl-1H-imidazol-5-yl)methanol]
		58 nM	130 nM	96%	COc1nc2ccc(C(O)c3cnc(C)n3C)cc2c(Cl)c1Cc1ccc(C(F)(F)F)cc1 (single isomer, unassigned) [Example 15c, (4-Chloro-2-methoxy-3-(4-(trifluoromethyl)benzyl)quinolin-6-yl)(1,2-dimethyl-1H-imidazol-5-yl)methanol]

From patent EP3057949B1, “SECONDARY ALCOHOL QUINOLINYL MODULATORS OF ROR GAMMA T” (Janssen Pharmaceutica NV, priority 2013, dated 2015)
